Data from patent US20080275078A1, “Pyrazolo[3,4-B] Pyridine Compounds and Their Use as Pde4 Inhibitors” (Glaxo Group Limited, priority 2004, published 2008).

How the values were obtained:
[1] = tested on: atopic dermatitis patients; conditions: 0.5% ointment, twice daily topical application; cited from earlier work
[2] = Preliminary test of systemic exposure after oral administration to rat(s); type: in vivo; conditions: about 1 mg/kg, free base, in approx. 10% DMSO and 90% PEG200/water (70:30), preliminary tests
From the text: Although the compound of formula (I) or salt thereof may be administered orally, oral administration is not presently thought to be a preferred route of administration, at least for the compound 4-{[1-(aminocarbonyl)-4-piperidinyl]amino}-N-[(3,4-dimethylphenyl)methyl]-1-ethyl-1H-pyrazolo[3,4-b]pyridine-5-carboxamide (“free base” form) (e.g. Example 2, 2A or 2B).

[3] = Preliminary aqueous solubility screen; type: physicochemical; conditions: pH 7.4 PBS with about 5% DMSO, about room temperature, free base
Procedure: Aqueous solubility: A preliminary screen aims to estimate roughly the aqueous solubility of compounds by (as an approximate summary): (i) creating a ca. 10 mM solution of the compound in DMSO, (ii) diluting a portion of this DMSO solution by mixing about 19 parts by volume of pH 7.4 aqueous phosphate buffered saline (PBS) buffer with 1 part by volume of the ca. 10 mM DMSO solution, (iii) “filtering” the mixture with the aid of centrifugation, and then (iv) measuring the concentration of the dissolved compound in the “filtrate”.

[4] = Measured logD; type: physicochemical; conditions: octanol/water; pH=7.4, free base
[5] = tested on: dinitrofluorobenzene (DNFB)-induced delayed type hypersensitivity (DTH) response in pigs; test: In Vivo Assay A: pig model of atopic dermatitis, skin topical administration; conditions: for reduction in the mean summed score: ca. 2.5% (w/v) in DMSO/acetone solution, about 2 h prior to and 6 h after DNFB challenge, vs vehicle alone
From the text: The pig DTH (delayed type hypersensitivity) model of contact hypersensitivity utilizes the Th2-mediated inflammatory response in pig skin to mimic the pathology of atopic dermatitis in humans. The model measures the potential anti-inflammatory effect of compounds, topically-applied to the skin, on the acute DTH (delayed type hypersensitivity) response in castrated male Yorkshire pigs.
In general in the assay, pigs (domestic Yorkshire pigs, 15-18 kg at time of sensitization, castrated males) are first sensitized by topical application of ca. 10% (w/v) dinitrofluorobenzene (DNFB) dissolved in DMSO:acetone:olive oil (ca. 1:5:3) (ca. 40 mg DNFB, 400 microlitre solution total) to the ears (outer) and groin (inner). The pigs are then challenged 12 days later with ca. 0.6% (w/v) DNFB applied to randomized sites on the shaved back of the pigs (ca. 90 micrograms/site; sites are identified and numbered by grid made with marking pen).
On the day of challenge, the treatments are performed at the challenge sites at about 2 hours prior to and about 6 hours after challenge (for DMSO/acetone solutions/suspensions containing the PDE4 inhibitor, to maximize exposure to drug), or at about 30 minutes after and about 6 hours after challenge (for topical ointments or creams containing the PDE4 inhibitor, representing a more clinically relevant treatment protocol).
One day (about 24 hrs) after challenge, and optionally again at ca. 48 hrs post challenge, test sites are visually evaluated for intensity and extent of erythema by measuring the diameter of the reaction at its widest point and assigning scores of 0 to 4 for each of erythema intensity and erythema extent. Induration (a measure of swelling) is also scored 0 to 4. Scores for erythema intensity, erythema extent and induration are assigned according to the following criteria: Intensity of Erythema: 0=normal, 1=minimal, barely visible, 2=mild, 3=moderate, 4=severe. Extent of Erythema (not raised): 0=no edema, 1=macules of pin head size, 2=lentil sized macules, 3=confluent macules, 4=diffuse over entire site. Induration (palpable): 0=normal, 1=nodules of pin head size, 2=doughy lentil sized nodules, 3=confluent firm nodules, 4=diffuse hard lesion. The summed visual score at ca. 24 hours includes the individual scores for erythema intensity, erythema extent, and induration; so the maximal summed score for each site would be 12. High summed scores can generally indicate a high inflammatory response. Visual scores are subject to some inaccuracy/error.
Differences in the summed score between adjacent control (placebo) and treatment sites on the grids are calculated. This difference value is then used to determine the percent inhibition compared to the summed score for the control (placebo) sites. The more negative the difference value, the greater the calculated inhibition. Percent inhibition of (percent inhibition compared to) the mean summed score can be calculated.
About 24 hours after challenge, treatment sites can optionally also be visually evaluated for lesion area.
The anti-inflammatory effect of the compound 4-{[1-(aminocarbonyl)-4-piperidinyl]amino}-N-[(3,4-dimethylphenyl)methyl]-1-ethyl-1H-pyrazolo[3,4-b]pyridine-5-carboxamide (“Example 2 or 2A compound”), applied topically to the skin, on the acute DTH response in castrated male Yorkshire pigs is compared to that of another PDE4 inhibitor cipamfylline (BRL-61063) and the topical immunomodulator pimecrolimus.
In the above assay, the Example 2 or 2A compound is topically administered: either (A) at ca. 2.5% (w/v) concentration in a solution of ca. 10% DMSO/90% acetone (ca. 50 microlitres or ca. 1.5 mg/site) at about 2 hours prior to and about 6 hours after the DNFB challenge; or (B) at ca. 0.5% (w/w) concentration in an ointment containing propylene glycol (PG)* (ca. 25 mg of formulation/site) at about 30 minutes after and about 6 hours after the DNFB challenge. […]

[6] = tested on: COPD patients; conditions: cited from earlier work
[7] = tested on: atopic dermatitis patients; conditions: 0.15% cream vs vehicle and hydrocortisone 17-butyrate (0.1%) cream; cited from earlier work

## COc1ccc(C2CNC(=O)NC2)cc1O[C@H]1C[C@@H]2CC[C@H]1C2 [CP80,633]
[1]
  inflammatory parameters in atopic dermatitis patients: reductions of inflammatory parameters

## CCn1ncc2c(NC3CCN(C(N)=O)CC3)c(C(=O)NCc3ccc(C)c(C)c3)cnc21 [Example 2, 4-{[1-(aminocarbonyl)-4-piperidinyl]amino}-N-[(3,4-dimethylphenyl)methyl]-1-ethyl-1H-pyrazolo[3,4-b]pyridine-5-carboxamide]
[2]
  systemic exposure after oral administration: low systemic exposure
[3]
  aqueous solubility: about 60 micrograms of the compound/ml
[4]
  logD: ~3.4
[5]; ca. 0.5% (w/w) in PG ointment, about 30 min and 6 h after DNFB challenge, vs placebo PG ointment, ca. 24 h, p<0.05
  inhibition of the mean summed score (erythema intensity, erythema extent, induration): 13-14%
[5]
  reduction in the mean summed score: about 21%
[5]; skin administration in DMSO/acetone or PG ointment, results subject to some inaccuracy/error
  lesion area: decrease the lesion area
other
  melting point: 152 to 154 °C

## COc1ccc([C@]2(C#N)CC[C@@H](C(=O)O)CC2)cc1OC1CCCC1 [cilomilast]
[6]; 15 mg orally twice daily
  forced expiratory volume (FEV1) in COPD patients: appears to improve forced expiratory volume
[6]; human, in vivo
  antiinflammatory effects in COPD patients: appears to have antiinflammatory effects

## Nc1nc2c([nH]1)c(=O)n(CC1CC1)c(=O)n2CC1CC1 [cipamfylline, reference compound]
[5]; ca. 0.25% (w/w) in ointment, not statistically significant
  reduction in the summed scores: 6-7%
[5]
  reduction in the mean summed score: about 8%
[7]
  effectiveness in the treatment of atopic dermatitis patients: significantly more effective than vehicle, but significantly less effective than hydrocortisone 17-butyrate (0.1%) cream
